In ChEMBL document CHEMBL5375971, “Structure-Interaction Relationship of Polymyxins with Lung Surfactant” (2023):
The source made the active and inactive calls. The calls are words filed in the database; no cut-off is given here. Where a SMILES comes first, the peptide text is derived from it. Bridges are numbered along the chain shown (N, C = ends). [ ]: non-standard residue; d: D form. The star is where a group is joined. X1 = CC[C@H](C)CCCCC(=O)*; dDab = NCC[C@@H](N)C(=O)O; Dab = NCC[C@H](N)C(=O)O

Key:
Details in all cases: dose 0.25-4 mg/L
[1] = test system: Pseudomonas aeruginosa; assay: Antibacterial activity against Pseudomonas aeruginosa ATCC 27853 assessed as fold increase in MIC at 0.25 to 4 mg/L in presence of lung surfactant by broth microdilution assay; assay type: functional
[2] = test system: Klebsiella pneumoniae; assay: Antibacterial activity against Klebsiella pneumoniae FADDI-KP065 assessed as decrease in bacterial growth at 0.25 to 4 mg/L in presence of lung surfactant by broth microdilution assay; assay type: functional, organism-based
[3] = test system: Acinetobacter baumannii; assay: Antibacterial activity against Acinetobacter baumannii FADDI-AB030 assessed as decrease in bacterial growth at 0.25 to 4 mg/L in presence of lung surfactant by broth microdilution assay; assay type: functional, organism-based
[4] = test system: Pseudomonas aeruginosa; assay: Antibacterial activity against Pseudomonas aeruginosa ATCC 27853 assessed as decrease in bacterial growth at 0.25 to 4 mg/L in presence of lung surfactant by broth microdilution assay; assay type: functional, organism-based
[5] = test system: Klebsiella pneumoniae; assay: Antibacterial activity against Klebsiella pneumoniae FADDI-KP065 assessed as fold increase in MIC at 0.25 to 4 mg/L in presence of lung surfactant by broth microdilution assay; assay type: functional
[6] = test system: Acinetobacter baumannii; assay: Antibacterial activity against Acinetobacter baumannii FADDI-AB030 assessed as fold increase in MIC at 0.25 to 4 mg/L in presence of lung surfactant by broth microdilution assay; assay type: functional

Compound	fold change (FC) [1]	Activity [2]	Activity [3]	Activity [4]	fold change (FC) [5]	fold change (FC) [6]
CC[C@H](C)CCCCC(=O)N[C@@H](CCN)C(=O)N[C@H](C(=O)N[C@H](CCN)C(=O)N[C@H]1CCNC(=O)[C@H]([C@@H](C)O)NC(=O)[C@H](CCN)NC(=O)[C@H](CCN)NC(=O)[C@H]([C@@H](C)O)NC(=O)[C@@H](CC(C)C)NC(=O)[C@H](CCN)NC1=O)[C@@H](C)O (X1-[Dab]T[dDab][Dab][Dab][dL]T[Dab][Dab]T; lactam 4-C)	2	Active	Active	Active	8	4
CCCCCC(=O)N[C@@H](CCN)C(=O)N[C@@H](C(=O)N[C@@H](CCN)C(=O)N[C@H]1CCNC(=O)[C@@H]([C@H](C)O)NC(=O)[C@H](CCN)NC(=O)[C@H](CCN)NC(=O)[C@H]([C@H](C)O)NC(=O)[C@@H](CC(C)C)NC(=O)[C@H](CCN)NC1=O)[C@H](C)O		inactive	inactive	inactive		
COLISTIN	4	Active	Active	Active	2	4
CC[C@H](C)CCCCC(=O)N[C@@H](CCN)C(=O)N[C@H](C(=O)N[C@@H](CCN)C(=O)N[C@H]1CCNC(=O)[C@H]([C@@H](C)O)NC(=O)[C@H](CCN)NC(=O)[C@H](CCN)NC(=O)[C@H]([C@@H](C)O)NC(=O)[C@@H](CC(C)C)NC(=O)[C@H](CCN)NC1=O)[C@@H](C)O (X1-[Dab]T[Dab][Dab][Dab][dL]T[Dab][Dab]T; lactam 4-C)	2	Active	Active	Active	4	4
CCCCCCCCCC(=O)N[C@@H](CCN)C(=O)N[C@H](C(=O)N[C@@H](CCN)C(=O)N[C@H]1CCNC(=O)[C@H]([C@@H](C)O)NC(=O)[C@H](CCN)NC(=O)[C@H](CCN)NC(=O)[C@H]([C@H](C)O)NC(=O)[C@@H](CC(C)C)NC(=O)[C@H](CCN)NC1=O)[C@@H](C)O		Active	Active	Active		
CC[C@H](C)CCCCC(=O)N[C@@H](CCN)C(=O)N[C@H](C(=O)N[C@@H](CCN)C(=O)N[C@H]1CCNC(=O)[C@H]([C@@H](C)O)NC(=O)[C@H](CCN)NC(=O)[C@H](CCN)NC(=O)[C@H](CC(C)C)NC(=O)[C@@H](Cc2ccccc2)NC(=O)[C@H](CCN)NC1=O)[C@@H](C)O (X1-[Dab]T[Dab][Dab][Dab][dF]L[Dab][Dab]T; lactam 4-C)		Active	Active	Active		
CCCCCCCC[C@@H]1NC(=O)[C@@H](Cc2ccccc2)NC(=O)[C@@H](CCN)NC(=O)[C@@H](NC(=O)[C@H](CCN)NC(=O)[C@@H](NC(=O)[C@H](CCN)NC(=O)CCCCCCC)[C@@H](C)O)CCNC(=O)[C@H]([C@@H](C)O)NC(=O)[C@H](CCN)NC(=O)[C@H](CCN)NC1=O	8				2	2
